Experimental data reported in patent US5041567A, “Antibacterial monic acid derivatives” (Beecham Group plc, priority 1982, dated 1991).
Values after ≈ are worked out from the molar mass of the structure shown. Like-named read-outs stand apart in the source and are kept apart here.

Key:
Strep. agalactiae 2788-B = experiment: MIC against human bacteria in vitro; type: cell-based; conditions: Streptococcus agalactiae; Strep. agalactiae 2788-B; 5% chocolated horse blood agar, 18 hours; read-out: MIC
M. dispar NCTC 10125 = experiment: MIC against mycoplasma in vitro; type: cell-based; conditions: 144 h
M. suipneumoniae LABER = experiment: MIC against mycoplasma in vitro; type: cell-based; conditions: Mesomycoplasma hyopneumoniae, 144 h; M. suipneumoniae LABER; 6 days, 37° C.; read-out: MIC
[1] = system: Staph. aureus B4 (pen. resistant); experiment: MIC against veterinary bacteria in vitro; conditions: Staphylococcus aureus, 18 h
Protocol: (§1) The activity of the compounds of the Examples against various veterinarily important bacteria, was assayed in vitro using two-fold serial dilutions in Diagnostic Sensitivity Test Agar inoculated with 10^4 organisms.

S. dublin S7 = experiment: MIC against veterinary bacteria in vitro; conditions: Salmonella enterica, S7, 18 h
Protocol: as §1

Bacillus subtilis 6633 = experiment: MIC against human bacteria in vitro; type: cell-based; conditions: Bacillus subtilis 6633; 5% chocolated horse blood agar, 18 hours; read-out: MIC
[2] = system: M. suipneumoniae ATCC 25095; experiment: MIC against mycoplasma in vitro; type: cell-based; conditions: Mesomycoplasma hyopneumoniae, ATCC25095, 144 h; M. suipneumoniae ATCC 25095; 6 days, 37° C.; read-out: MIC
Staph. aureus W2827 = experiment: MIC against human bacteria in vitro; type: cell-based; conditions: Staphylococcus aureus
M. hyorhinis ATCC 25021 = experiment: MIC against mycoplasma in vitro; type: cell-based; conditions: Mesomycoplasma hyorhinis, ATCC25021, 144 h; M. hyorhinis ATCC 25021; 6 days, 37° C.; read-out: MIC
[3] = system: M. suipneumoniae PW/C/210; experiment: MIC against mycoplasma in vitro; type: cell-based; conditions: Mesomycoplasma hyopneumoniae, 144 h; M. suipneumoniae PW/C/210; 6 days, 37° C.; read-out: MIC
[4] = system: Strep. suis (group D) SPS11; experiment: MIC against veterinary bacteria in vitro; conditions: Streptococcus suis, 18 h
Protocol: as §1

E. coli ESS = experiment: MIC against human bacteria in vitro; type: cell-based; conditions: Escherichia coli
[5] = system: Pasteurella multocida 1633; experiment: MIC against human bacteria in vitro; type: cell-based
M. suipneumoniae TAM 6N = experiment: MIC against mycoplasma in vitro; type: cell-based; conditions: Mesomycoplasma hyopneumoniae, TAM6N, 144 h; M. suipneumoniae TAM 6N; 6 days, 37° C.; read-out: MIC
K. aerogenes A = experiment: MIC against human bacteria in vitro; type: cell-based; conditions: Klebsiella aerogenes; K. aerogenes A; 5% chocolated horse blood agar, 18 hours; read-out: MIC
Bord. bronchiseptica B08 = experiment: MIC against veterinary bacteria in vitro; conditions: Bordetella bronchiseptica, B08, 18 h
Protocol: as §1

Strep. pneumoniae CN33 = experiment: MIC against human bacteria in vitro; type: cell-based; conditions: Streptococcus pneumoniae
Past. multocida PA1 = experiment: MIC against veterinary bacteria in vitro; conditions: Pasteurella multocida, PA1, 18 h
Protocol: as §1

M. suipneumoniae UCD 1 = experiment: MIC against mycoplasma in vitro; type: cell-based; conditions: Mesomycoplasma hyopneumoniae, UCD1, 144 h
Bord. bronchiseptica B09 = experiment: MIC against veterinary bacteria in vitro; conditions: Bordetella bronchiseptica, B09, 18 h
Protocol: as §1

E. coli NCTC 10418 = experiment: MIC against human bacteria in vitro; type: cell-based; conditions: Escherichia coli
Staph. aureus Oxford = experiment: MIC against human bacteria in vitro; type: cell-based; conditions: Staphylococcus aureus; Staph. aureus Oxford; 5% chocolated horse blood agar, 18 hours; read-out: MIC
Sarcina lutea 8340 = experiment: MIC against human bacteria in vitro; type: cell-based; conditions: Micrococcus luteus; Sarcina lutea 8340; 5% chocolated horse blood agar, 18 hours; read-out: MIC
P. mirabilis 889 = experiment: MIC against human bacteria in vitro; type: cell-based
Strep. faecalis I = experiment: MIC against human bacteria in vitro; type: cell-based; conditions: Enterococcus faecalis; Strep. faecalis I; 5% chocolated horse blood agar, 18 hours; read-out: MIC
[6] = system: Corynebacterium xerosis 9755; experiment: MIC against human bacteria in vitro; type: cell-based; conditions: Corynebacterium xerosis 9755; 5% chocolated horse blood agar, 18 hours; read-out: MIC
Strep. dysgalactiae SPD1 = experiment: MIC against veterinary bacteria in vitro; conditions: Streptococcus dysgalactiae, SPD1, 18 h
Protocol: as §1

Staph. aureus Russell = experiment: MIC against human bacteria in vitro; type: cell-based; conditions: Staphylococcus aureus
E. coli E1 = experiment: MIC against veterinary bacteria in vitro; conditions: Escherichia coli, E1, 18 h
Protocol: as §1

Strep. agalactiae SPA1 = experiment: MIC against veterinary bacteria in vitro; conditions: Streptococcus agalactiae, SPA1, 18 h
Protocol: as §1

M. suipneumoniae MS 16 = experiment: MIC against mycoplasma in vitro; type: cell-based; conditions: Mesomycoplasma hyopneumoniae, MS16, 144 h; M. suipneumoniae MS 16; 6 days, 37° C.; read-out: MIC
M. hyorhinis ATCC 23234 = experiment: MIC against mycoplasma in vitro; type: cell-based; conditions: Mesomycoplasma hyorhinis, ATCC23234, 144 h; M. hyorhinis ATCC 23234; 6 days, 37° C.; read-out: MIC
Past. multocida PA2 = experiment: MIC against veterinary bacteria in vitro; conditions: Pasteurella multocida, PA2, 18 h
Protocol: as §1

M. suipneumoniae HK(2) = experiment: MIC against mycoplasma in vitro; type: cell-based; conditions: Mesomycoplasma hyopneumoniae, 144 h; M. suipneumoniae HK(2); 6 days, 37° C.; read-out: MIC
Strep. spp. 64/848-C = experiment: MIC against human bacteria in vitro; type: cell-based; conditions: Strep. spp. 64/848-C; 5% chocolated horse blood agar, 18 hours; read-out: MIC
[7] = E. coli ESS, 5% chocolated horse blood agar, 18 hours, read-out: MIC
[8] = NCTC10418, E. coli NCTC 10418, agar with 5% chocolated horse blood, 18 hours, 37° C., read-out: MIC
[9] = Proteus mirabilis, P. mirabilis 889, 5% chocolated horse blood agar, 18 hours, read-out: MIC
[10] = Staph. aureus W2827, 5% chocolated horse blood agar, 18 hours, read-out: MIC
[11] = Pasteurella multocida 1633, 5% chocolated horse blood agar, 18 hours, read-out: MIC
[12] = M. suipneumoniae UCD 1, 6 days, 37° C., read-out: MIC
[13] = Staph. aureus Russell, 5% chocolated horse blood agar, 18 hours, read-out: MIC

SMILES	MIC (Strep. agalactiae 2788-B) [µg/mL]	MIC (M. suipneumoniae LABER) [µg/mL]	MIC [1] [µg/mL]	MIC (S. dublin S7) [µg/mL]	MIC (Bacillus subtilis 6633) [µg/mL]	MIC [2] [µg/mL]	MIC (M. hyorhinis ATCC 25021) [µg/mL]	MIC [3] [µg/mL]	MIC [4] [µg/mL]	MIC (M. suipneumoniae TAM 6N) [µg/mL]	MIC (K. aerogenes A) [µg/mL]	MIC (Bord. bronchiseptica B08) [µg/mL]	MIC (Past. multocida PA1) [µg/mL]	MIC (Bord. bronchiseptica B09) [µg/mL]	MIC (Staph. aureus Oxford) [µg/mL]	MIC (Sarcina lutea 8340) [µg/mL]	MIC (Strep. faecalis I) [µg/mL]	MIC [6] [µg/mL]	MIC (Strep. dysgalactiae SPD1) [µg/mL]	MIC (E. coli E1) [µg/mL]	other results
C/C(=C\c1ncc(-c2cccc(C#N)c2)o1)C[C@@H]1OC[C@H](C[C@@H]2O[C@H]2[C@@H](C)[C@H](C)O)[C@@H](O)[C@H]1O [Example 5, 5-m-cyanophenyl-2-(1-normon-2-yl)oxazole A]	2.5 (≈ 5.34 µM)	0.05 (≈ 0.107 µM)	1.25 (≈ 2.67 µM)	> 80	1.2 (≈ 2.56 µM)	0.05 (≈ 0.107 µM)	0.05 (≈ 0.107 µM)	0.05 (≈ 0.107 µM)	10 (≈ 21.3 µM)	0.1 (≈ 0.213 µM)	> 50	80 (≈ 171 µM)	5 (≈ 10.7 µM)	40 (≈ 85.4 µM)	1.2 (≈ 2.56 µM)	> 50	50 (≈ 107 µM)	> 50	0.312 (≈ 0.666 µM)	> 80	MIC (M. dispar NCTC 10125): 0.025 µg/mL (≈ 0.0534 µM); MIC (Staph. aureus W2827; W2827, 18 h): 5 µg/mL (≈ 10.7 µM); MIC (E. coli ESS; [7]): 1.2 µg/mL (≈ 2.56 µM); MIC ([5]; Pasteurella multocida, 1633, 18 h): 5 µg/mL (≈ 10.7 µM); MIC (Strep. pneumoniae CN33; Strep. pneumoniae CN33, 5% chocolated horse blood agar, 18 hours, read-out: MIC): 2.5 µg/mL (≈ 5.34 µM); MIC (M. suipneumoniae UCD 1): 0.1 µg/mL (≈ 0.213 µM); MIC (E. coli NCTC 10418; [8]): > 50 µg/mL; MIC (P. mirabilis 889; [9]): > 50 µg/mL; MIC (Staph. aureus Russell; 18 h): 5 µg/mL (≈ 10.7 µM); MIC (Strep. agalactiae SPA1): 0.625 µg/mL (≈ 1.33 µM); MIC (M. suipneumoniae MS 16): 0.05 µg/mL (≈ 0.107 µM); MIC (M. hyorhinis ATCC 23234): 0.05 µg/mL (≈ 0.107 µM); MIC (Past. multocida PA2): 2.5 µg/mL (≈ 5.34 µM)
C/C(=C\c1ncc(Cc2ccccc2)o1)C[C@@H]1OC[C@H](C[C@@H]2O[C@H]2[C@@H](C)[C@H](C)O)[C@@H](O)[C@H]1O [Example 27, 5-Benzyl-2-(1-normon-2-yl)oxazole A]	16 (≈ 35 µM)	5 (≈ 10.9 µM)	2.5 (≈ 5.46 µM)	> 80	4 (≈ 8.74 µM)	5 (≈ 10.9 µM)	5 (≈ 10.9 µM)	5 (≈ 10.9 µM)	> 80	10 (≈ 21.9 µM)	> 64	> 80	20 (≈ 43.7 µM)	80 (≈ 175 µM)	8 (≈ 17.5 µM)	> 64	> 64	> 64	2.5 (≈ 5.46 µM)	> 80	MIC (M. dispar NCTC 10125): 2.5 µg/mL (≈ 5.46 µM); MIC (Staph. aureus W2827; [10]): 16 µg/mL (≈ 35 µM); MIC (M. suipneumoniae HK(2)): 10 µg/mL (≈ 21.9 µM); MIC (E. coli ESS; [7]): 16 µg/mL (≈ 35 µM); MIC [5, 11]: 32 µg/mL (≈ 69.9 µM); MIC (M. suipneumoniae UCD 1; [12]): 10 µg/mL (≈ 21.9 µM); MIC (Strep. spp. 64/848-C): 16 µg/mL (≈ 35 µM); MIC (E. coli NCTC 10418; [8]): > 64 µg/mL; MIC (P. mirabilis 889; [9]): > 64 µg/mL; MIC (Staph. aureus Russell; [13]): 16 µg/mL (≈ 35 µM); MIC (Strep. agalactiae SPA1): 20 µg/mL (≈ 43.7 µM); MIC (M. suipneumoniae MS 16): 5 µg/mL (≈ 10.9 µM); MIC (M. hyorhinis ATCC 23234): 10 µg/mL (≈ 21.9 µM); MIC (Past. multocida PA2): 5 µg/mL (≈ 10.9 µM)
C/C(=C\c1nc(C)c(C)o1)C[C@@H]1OC[C@H](C[C@@H]2O[C@H]2[C@@H](C)[C@H](C)O)[C@@H](O)[C@H]1O [Example 39, 4,5-Dimethyl-2-(1-normon-2-yl)oxazole A]	> 100	> 10	> 80	> 80	> 100	> 10	> 10	> 10	> 80	> 10	> 100	> 80	80 (≈ 202 µM)	> 80	100 (≈ 253 µM)	> 100	> 100	> 100	> 80	> 80	MIC (M. dispar NCTC 10125; M. dispar NCTC 10125, 6 days, 37° C., read-out: MIC): > 10 µg/mL; MIC (Staph. aureus W2827; [10]): > 100 µg/mL; MIC (M. suipneumoniae HK(2)): > 10 µg/mL; MIC (E. coli ESS; 18 h): > 100 µg/mL; MIC [5, 11]: 50 µg/mL (≈ 126 µM); MIC (Strep. pneumoniae CN33; CN33, 18 h): 100 µg/mL (≈ 253 µM); MIC (M. suipneumoniae UCD 1; [12]): > 10 µg/mL; MIC (E. coli NCTC 10418; NCTC10418, 18 h): > 100 µg/mL; MIC (P. mirabilis 889; Proteus mirabilis, 889, 18 h): > 100 µg/mL; MIC (Staph. aureus Russell; [13]): > 100 µg/mL; MIC (M. suipneumoniae MS 16): > 10 µg/mL; MIC (M. hyorhinis ATCC 23234): > 10 µg/mL; MIC (Past. multocida PA2): 40 µg/mL (≈ 101 µM)
